How the values were obtained:
tumor [1] = assay: Anti-tumor effect in mice after oral liposomal betulinic acid; format: in vivo; settings: extrapolated from 150 mg/kg weekly oral dose in mice
[2] = system: non-cancerous healthy cells; settings: in vitro; cited from earlier work
[3] = at concentrations effectively limiting cancer growth, up to 500 mg per kg bodyweight; cited from earlier work
[4] = system: stearoyl-CoA-desaturase (SCD-1); settings: role: inhibitor; cited from earlier work
cancer cell lines = settings: cited from earlier work
tumor [5] = settings: oral, liposomal betulinic acid; cited from earlier work
[6] = at a range of molar ratios; cited from earlier work
[7] = system: tumor growth of predominant cancer types; settings: preclinically in vivo; cited from earlier work

## C=C(C)[C@@H]1CC[C@]2(C(=O)O)CC[C@]3(C)[C@H](CC[C@@H]4[C@@]5(C)CC[C@H](O)C(C)(C)[C@@H]5CC[C@]43C)[C@@H]12 [betulinic acid, (3β)-3-Hydroxylup-20 (29)-en-28-oic acid]
Tumor [1]
  Weekly dose extrapolated to an individual of 80 kg: 12 gr
[2]
  Cytotoxicity for non-cancerous healthy cells: absent
[3]
  Signs of toxicity in animal experiments: no signs of toxicity were observed
[4]
  Effect on SCD-1 activity: inhibit the activity of stearoyl-CoA-desaturase (SCD-1)
Cancer cell lines
  Activity against cancer types in vitro: broad activity against all prevalent cancer types in vitro
Tumor [5]
  Weekly orally administered dose required for the observed anti-tumor effects in mice: 150 mg/kg bodyweight
[6]
  Miscibility with outer leaflet membrane phospholipids: miscible
[7]
  Tumor growth inhibition: inhibits tumor growth of predominant cancer types

## C=C(C)[C@@H]1CC[C@]2(C)CC[C@]3(C)[C@H](CC[C@@H]4[C@@]5(C)CC[C@H](O)C(C)(C)[C@@H]5CC[C@]43C)[C@@H]12 [lupeol, (3β)-Lup-20 (29)-en-3-ol]
[6]
  Miscibility with outer leaflet membrane phospholipids: miscible
